Source: US11344496B2, “Methods for preparing stabilized amorphous drug formulations using acoustic fusion” (Merck Sharp & Dohme Corp., priority 2017, dated 2022)

Columns and labels:
[1] = BCS (Biopharmaceutics Classification System) designation by solubility and permeability; type: physicochemical; set-up: key: BCS Class 1 describes compounds with high permeability and high solubility.; BCS Class 2 describes compounds with high permeability and low solubility.; BCS Class 3 describes compounds with low permeability and high solubility.; BCS Class 4 describes compounds with low permeability and low solubility
Excerpt: We tested a number of model drugs using the acoustic fusion methods, as described infra. The drugs tested are representative BCS Class 2 and Class 4 drugs. The BCS (Biopharmaceutics Classification System) designation is used to group compounds into classes based on their solubility and permeability (BCS guidance “Waiver of In vivo Bioavailability and Bioequivalence Studies for Immediate Release Solid Oral Dosage Forms Based on a Biopharmaceutics Classification System,” U.S. Department of Health and Human Services, Food and Drug Administration):
BCS Class 1 describes compounds with high permeability and high solubility.
BCS Class 2 describes compounds with high permeability and low solubility.
BCS Class 3 describes compounds with low permeability and high solubility.
BCS Class 4 describes compounds with low permeability and low solubility.
Under the BCS Classification System, a drug is considered highly soluble if fully solubilized in 250 mL water at the highest therapeutic dose at any physiological pH. A drug is considered highly permeable if the extent of oral absorption is greater than 90%.

[2] = Rat oral pharmacokinetic study of torcetrapib formulations; type: in vivo; details: male, Wistar-Han, plasma, rats, 10 mg/kg
Description: The in vivo absorption of Torcetrapib after oral administration of the Torcetrapib-copovidone-TPGS dispersion described in Example 4 was investigated in rats at a dose level of 10 mg/kg. Materials and methods used for the rat pharmacokinetic study are provided below. Crystalline drug powders and drug-polymer dispersion formulations were also evaluated as control formulations. The drug powders and drug-polymer dispersions were dosed as suspensions in 0.5% of methylene cellulose. The Torcetrapib-polymer dispersion was used as a benchmark formulation for enhancing the drug's solubility and oral absorption.
Male Wistar-Han rats were used for oral administration studies. All animals were fasted overnight before dosing, provided water ad libitum, and fed 4 hours following drug treatment. The fasted animals were orally given torcetrapib formulations by gavage (n=3) at a torcetrapib dose of 10 mg/kg. The formulations included a suspension of crystalline torcetrapib powder in 0.5% of methyl cellulose (MC), a suspension of torcetrapib-polymer dispersion in 0.5% of acidified MC (5 mM HCl added to prevent dissolution of the polymer in the vehicle). Serial blood samples were collected at 0.25, 0.5, 1, 2, 4, 8, 12, 18, and 24 hour post-dose and placed into EDTA-containing tubes and centrifuged. […]
Torcetrapib plasma concentrations were determined by LC-MS/MS following protein precipitation with acetonitrile. […] Analyte response was measured by multiple reaction monitoring (MRM) of transitions unique to each compound.
Calibration curves were generated and verified using standard and quality control samples prepared from an initial weighing of high purity compound. […] The limit of quantification was 1 ng/mL. […]
Pharmacokinetic parameters were calculated by established non-compartmental methods. The area under the plasma concentration vs. time curve from time zero to time t(AUC0-t) was determined using the Watson software (version 7.3) with linear trapezoidal interpolation in the ascending slope and logarithmic trapezoidal interpolation in the descending slope.

BCS Class [1] | Tmax ([2]; mean n = 3) | AUC(0-t) ([2]; mean n = 3, read-out: AUC(0-24)) | Cmax ([2]; suspension in 0.5% methyl cellulose, mean n = 3) | Compound
BCS Class 2 | 6 h | 0.707 µM·h | 84 nM | CCOC(=O)N1c2ccc(C(F)(F)F)cc2[C@@H](N(Cc2cc(C(F)(F)F)cc(C(F)(F)F)c2)C(=O)OC)C[C@H]1CC [Torcetrapib, (2R,4S)-4-[(3,5-Bis-trifluoromethylbenzyl)methoxycarbonylamino]-2-ethyl-6-trifluoromethyl-3,4-dihydro-2H-quinoline-1-carboxylic acid ethyl ester]
BCS class 2 | – | – | – | Cc1cccc(C)c1OCC(=O)N[C@@H](Cc1ccccc1)[C@@H](O)C[C@H](Cc1ccccc1)NC(=O)[C@H](C(C)C)N1CCCNC1=O [Lopinavir, (αS)—N-[(1S,3S,4S)-4-[[2-(2,6-Dimethylphenoxy)acetyl]amino]-3-hydroxy-5-phenyl-1-(phenylmethyl)pentyl]tetrahydro-α-(1-methylethyl)-2-oxo-1(2H)-pyrimidineacetamide]
